Assay results as given in BindingDB's records for patent US20250313563 (The Broad Institute, 2025).
“And” between values parts separate entries of the source, which are not always exact repeats. Identical values can stand only once.

How the values were obtained:
[1] = molecular target: Glycogen synthase kinase-3 beta (Homo sapiens, UniProt P49841); experiment: TR-FRET Assay
Method in brief: (§1)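 Enzyme and test compound were first incubated together for 30 minutes in assay buffer. The kinase reaction followed and was stopped with EDTA. The pSer641 signal was read by time-resolved FRET.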

[2] = molecular target: Glycogen synthase kinase-3 alpha (Homo sapiens, UniProt P49840); experiment: TR-FRET Assay
Chain of Glycogen synthase kinase-3 alpha (P49840 whole entry): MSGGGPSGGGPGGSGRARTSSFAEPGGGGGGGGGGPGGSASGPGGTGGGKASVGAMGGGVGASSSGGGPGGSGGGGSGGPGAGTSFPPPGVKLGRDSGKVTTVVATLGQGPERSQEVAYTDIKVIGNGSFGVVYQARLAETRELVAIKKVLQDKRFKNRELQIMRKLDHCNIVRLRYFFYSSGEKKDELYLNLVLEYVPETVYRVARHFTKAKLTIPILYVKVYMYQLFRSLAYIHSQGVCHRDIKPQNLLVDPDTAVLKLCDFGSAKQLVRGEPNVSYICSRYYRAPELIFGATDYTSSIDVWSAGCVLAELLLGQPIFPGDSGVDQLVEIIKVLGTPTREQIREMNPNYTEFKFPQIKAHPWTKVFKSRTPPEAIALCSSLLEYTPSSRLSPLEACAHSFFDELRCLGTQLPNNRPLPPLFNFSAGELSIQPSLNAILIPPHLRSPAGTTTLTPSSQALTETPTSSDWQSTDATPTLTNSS
Method in brief: as §1

Chain of Glycogen synthase kinase-3 beta (P49841 whole entry): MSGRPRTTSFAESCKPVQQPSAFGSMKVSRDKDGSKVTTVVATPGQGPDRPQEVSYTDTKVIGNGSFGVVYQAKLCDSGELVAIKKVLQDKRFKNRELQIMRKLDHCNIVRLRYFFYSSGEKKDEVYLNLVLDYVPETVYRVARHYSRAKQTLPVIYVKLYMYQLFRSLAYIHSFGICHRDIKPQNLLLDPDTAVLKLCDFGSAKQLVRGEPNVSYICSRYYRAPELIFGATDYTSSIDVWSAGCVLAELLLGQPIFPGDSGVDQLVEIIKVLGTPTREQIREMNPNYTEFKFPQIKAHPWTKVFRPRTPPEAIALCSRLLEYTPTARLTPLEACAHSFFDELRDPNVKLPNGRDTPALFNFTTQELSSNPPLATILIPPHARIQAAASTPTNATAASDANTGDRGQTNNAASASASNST

`CC[C@]1(c2cccc(-c3ccncc3)c2)C2=CN=NC2NC2=C1C(=O)CC(C)(C)[C@@H]2F` (stereo partly drawn) [US20250313563, Compound 959341] gave an IC50 [1] of 100 to 1000 nM and an IC50 [2] of 1000 to 5000 nM.
In the case of `CC[C@@]1(c2cccc(-c3ccncc3)c2)C2=CN=NC2NC2=C1C(=O)CC(C)(C)[C@H]2F` (stereo partly drawn) [US20250313563, Compound 959343], the IC50 [1] is reported as < 100 nM and 1000 to 5000 nM and the IC50 [2] is reported as < 100 nM and 100 to 1000 nM.
With `CC[C@@]1(c2cccc(-c3ccncc3)c2)C2=CN=NC2NC2=C1C(=O)CC(C)(C)[C@@H]2F` (stereo partly drawn) [US20250313563, Compound 959344] the IC50 [1] was greater than 5000 nM and the IC50 [2] was greater than 5000 nM.
With `CCC1(c2cccc(-c3cncn3C(C)C)c2)C2=CN=NC2NC2=C1C(=O)CC(C)(C)C2F` (stereo not drawn) [US20250313563, Compound 963155] the IC50 [1] was less than 100 nM and the IC50 [2] was less than 100 nM.
